Results published in patent US5236815A, “Class of masked stabilizers in photographic materials or developing solutions” (priority 1991, dated 1993).
Structures can show the parent of a compound that is named as a salt. Where two headings read alike, the source gives them in different places.

Assays:
[1] = alcoholic solution of 5-nitroindazole vs aqueous solution of I-2; in words
Description: A control composition (A) containing 100 g of inert gelatin in 1600 ml of water was prepared. The solution further contained matting agents and anti-halo dyes. In a second control composition (8) 300 ml of water was replaced by 300 ml of a 1% alcoholic solution of 5-nitroindazole. […] In each sample pH was adjusted to 6.5.

[2] = for solubility at room temperature: water
[3] = assay type: physicochemical; details: pH 11.5
Description: To said basic composition were added 0.46 mmole/l of water soluble 5-nitroindazole precursors according to the invention as specified in table 1 below. In a comparison developer 0.46 mmole of 5-nitroindazole (5-NI) was added per liter. […] Therefore a second comparison developer sample was included in which 5-nitroindazole was first dissolved in 30 ml of N-methyl-pyrrolidone (part B) and then added to the solution, replacing 30 ml of water. In each sample the pH was readjusted to 11.5 with sodium hydroxide.

SMILES	instability problems in gelatineous compositions [1]	solubility at room temperature [2] [g/100 ml]	other results
O=C(c1ccccc1S(=O)(=O)[O-])n1ncc2cc([N+](=O)[O-])ccc21.[K+]	can be overcome		solubility at room temperature ([2]; room temperature): 1.7 g/100 ml
Cc1ccc2[nH]nnc2c1 [5-methylbenzotriazole]			solubility in water ([2]; background section, no temperature given): 0.5 g/100 ml of water
O=[N+]([O-])c1ccc2[nH]ncc2c1 [5-nitroindazole]	instability problems		solubility in developer solution [3]: only slightly soluble; solubility in water [2]: 0.02 g/100 ml of water
O=C(c1ccccc1S(=O)(=O)O)n1nnc2ccccc21 [Compound I-3, 1-(2-sulphonatobenzoyl)-benzotriazole triethylamine salt]		5.8	
c1ccc2[nH]nnc2c1 [benzotriazole]		1.3	
